Data: PMC10928227, “Assessing biologic/toxicologic effects of extractables from plastic contact materials for advanced therapy manufacturing using cell painting assay and cytotoxicity screening” (Scientific Reports, 2024)
Values joined by “and” are separate entries in the source; they are usually repeats but may differ in a detail not shown here. Equal entries are not always repeated. Where two headings read alike, the source gives them in different places.

Experiments:
[1] = cited from earlier work; for DNA damage and repair, Single Cell Gel Electrophoresis (comet) Assay: ref Yu F. Sasaki et. al., 2000, Critical Reviews in Toxicology,30(6),Pp.629-799
[2] = cited from earlier work; for Gene mutation, Mammalian Cell Gene Mutation Assay: T-lymphoma Cell Lines
[3] = tested on: U2OS human osteosarcoma cells; assay: Cell painting assay (CPA), morphological profiling and cell count; type: cell-based; conditions: for Cell count: 50 µM
Experimental: Initially, 5 µL U2OS medium were added to each well of a 384-well plate (PerkinElmer CellCarrier-384 Ultra). Subsequently, U2OS cell were seeded with a density of 1600 cells per well in 20 µL medium. The plate was incubated for 10 min at room temperature (RT), followed by an additional 4 h incubation (37 °C, 5% CO2). […] Incubation with compound was performed for 20 h (37 °C, 5% CO2). Subsequently, mitochondria were stained with Mito Tracker Deep Red (Thermo Fisher Scientific, Cat. No. M22426). The Mito Tracker Deep Red stock solution (1 mM) was diluted to a final concentration of 100 nM in prewarmed medium. The medium was removed from the plate leaving 10 µL residual volume and 25 µL of the Mito Tracker solution were added to each well. The plate was incubated for 30 min in darkness (37 °C, 5% CO2). To fix the cells, 7 µl of 18.5% formaldehyde in PBS were added, resulting in a final formaldehyde concentration of 3.7%. Subsequently, the plate was incubated for another 20 min in darkness (RT) and washed three times with 70 µL of PBS (Biotek Washer Elx405). Cells were permeabilized by addition of 25 µL 0.1% Triton X-100 to each well, followed by 15 min incubation (RT) in darkness. The cells were washed three times with PBS leaving a final volume of 10 µL. To each well 25 µL of a staining solution were added, which contains 1% BSA, 5 µL/mL Phalloidin (Alexa594 conjugate, Thermo Fisher Scientific, A12381), 25 µg/ml Concanavalin A (Alexa488 conjugate, Thermo Fisher Scientific, Cat. No. C11252), 5 µg/ml Hoechst 33342 (Sigma, Cat. No. B2261-25 mg), 1.5 µg/ml WGA-Alexa594 conjugate (Thermo Fisher Scientific, Cat. No. W11262) and 1.5 µM SYTO 14 solution (Thermo Fisher Scientific, Cat. No. S7576). The plate is incubated for 30 min (RT) in darkness and washed three times with 70 µL PBS. After the final washing step, the PBS was not aspirated. The plates were sealed and centrifuged for 1 min at 50 × g.
The images generated were processed with the CellProfiler package (https://cellprofiler.org/, version 3.0.0) on a computing cluster of the Max Planck Society to extract 1716 cell features per microscope site. The data was further aggregated as medians per well (9 sites → 1 well), then over the three replicates.
Out of the initial 1716 features, a subset of 579 highly reproducible and robust features was determined using a procedure based on the criteria described by Woehrmann et al.[54] Two biological repeats of one plate containing reference compounds were analysed. For every feature, its full profile over each whole plate was calculated. […] This procedure was performed once and served as the basis for all subsequent analyses.
The phenotypic profiles were compiled from the Z-scores of all individual cellular features, where the Z-score is a measure of how far away a data point is from a median value.
Specifically, Z-scores of test compounds were calculated relative to the Median of DMSO controls. Thus, the Z-score of a test compound defines how many MADs (Median Absolute Deviations) the measured value is away from the Median of the controls as illustrated by the following formula: Z-score=valuemeas.-MedianControls/MADControls
The phenotypic compound profile is then determined as the list of Z-scores of all features for one compound and is visualized via heatmap (examplarily see Fig. 2).

[4] = tested on: murine mesodermal stem cells (C3H10T1/2); assay: Osteogenesis inhibition assay (OIA), purmorphamine-induced alkaline phosphatase expression; type: cell-based; conditions: for IC50: read-out: Osteogenesis inhibition assay IC50
Experimental: The osteogenesis inhibition assay was performed as described elsewhere[57]. Briefly, murine mesodermal stem cells (C3H10T1/2) were stimulated with purmorphamine (a Hedgehog agonist) to induce the expression of the osteogenesis marker alkaline phosphatase.

CHO DG44 cells = assay: Cytotoxicity testing with CHO cells, cell growth spiking experiments (ASTM E3231-19); type: cell-based, Chinese hamster; conditions: read-out: EC50 with CHO cells
Experimental: The cell line was adapted to grow in suspension without animal-derived supplements. […] This method determines effective concentrations (EC50) that cause 50% inhibition of cell growth. Data evaluation was carried out according to the method described in ASTM E3231-19, “Standard Guide for Cell Culture Growth Assessment of Single-Use Material[23]”. This test defines best practices using serum-free, chemically-defined cell culture medium to prevent false negative results.

[5] = in Vivo, Database Genotoxicity & Carcinogenicity ECVAM, ref EURL ECVAM genotoxicity and carcinogencity database, Madia F et al, 2020
[6] = in Vivo, Database Genotoxicity OASIS
[7] = in Vitro, Chinese hamster, Chinese Hamster Lung (CHL), Duration 24÷48 h, Database Genotoxicity OASIS, ref Sofuni, T., Ed. (1998). Data Book of Chromosomal Aberration Test In Vitro, Revised Edition
[8] = in Vitro, Database Genotoxicity & Carcinogenicity ECVAM, ref EURL ECVAM genotoxicity and carcinogencity database, Madia F et al, 2020
[9] = in Vitro, No Strain Information, Database Genotoxicity OASIS, ref Mutation Research 584 (2005) 1-256, Kirkland et al.
[10] = in Vitro, Database Genotoxicity OASIS, ref Mutation Research 584 (2005) 1-256, Kirkland et al.
[11] = biosimilarity of CPA sub-profile to cluster

SMILES: OCc1ccccc1 [100-51-6]
- Chromosome aberration, Micronucleus Assay [1, 5]: Negative
- DNA damage and repair, COMET or Alkaline Elution [1, 5]: Positive
- Chromosome aberration, Micronucleus Assay ([1]; in Vivo, Database Genotoxicity OASIS, ref Hayashi M., et al., Food Chem. Toxicol., 26(6), 487-500, 1988): Negative
- DNA damage and repair, Single Cell Gel Electrophoresis (comet) Assay [1, 6]: Negative
- Gene mutation, Bacterial Reverse Mutation Assay (e.g. Ames Test) ([2]; Salmonella typhimurium, No Strain Information, in Vitro, Database: Genotoxicity OASIS, ref Mutation Research 584 (2005) 1-256, Kirkland et al.): Negative
- Gene mutation, Bacterial Reverse Mutation Assay (e.g. Ames Test) ([2]; Salmonella typhimurium, Strain TA 97, in Vitro, Database: Bacterial mutagenicity ISSSTY, ref CCRIS database,Toxnet databases (Romualdo Benigni)): Negative
- Gene mutation, Bacterial Reverse Mutation Assay (e.g. Ames Test) ([2]; Salmonella typhimurium, Strain TA 98, in Vitro, Database: Bacterial mutagenicity ISSSTY, ref CCRIS database,Toxnet databases (Romualdo Benigni)): Negative
- Gene mutation, Bacterial Reverse Mutation Assay (e.g. Ames Test) ([2]; Salmonella typhimurium, Strain TA 98, in Vitro, Database: Genotoxicity OASIS, ref P&G): Negative
- Gene mutation, Bacterial Reverse Mutation Assay (e.g. Ames Test) ([2]; Salmonella typhimurium, Strain TA 100, in Vitro, Database: Bacterial mutagenicity ISSSTY, ref CCRIS database,Toxnet databases (Romualdo Benigni)): Negative
- Gene mutation, Bacterial Reverse Mutation Assay (e.g. Ames Test) ([2]; Salmonella typhimurium, Strain TA 100, in Vitro, Database: Genotoxicity OASIS, ref P&G): Negative
- Gene mutation, Bacterial Reverse Mutation Assay (e.g. Ames Test) ([2]; Salmonella typhimurium, Strain TA 102, in Vitro, Database: Bacterial mutagenicity ISSSTY, ref CCRIS database,Toxnet databases (Romualdo Benigni)): Negative
- Gene mutation, Bacterial Reverse Mutation Assay (e.g. Ames Test) ([2]; Salmonella typhimurium, Strain TA 1535, in Vitro, Database: Bacterial mutagenicity ISSSTY, ref CCRIS database,Toxnet databases (Romualdo Benigni)): Negative
- Gene mutation, Bacterial Reverse Mutation Assay (e.g. Ames Test) ([2]; Salmonella typhimurium, Strain TA 1535, in Vitro, Database: Genotoxicity OASIS, ref P&G): Negative
- Gene mutation, Bacterial Reverse Mutation Assay (e.g. Ames Test) ([2]; Salmonella typhimurium, Strain TA 1537, in Vitro, Database: Bacterial mutagenicity ISSSTY, ref CCRIS database,Toxnet databases (Romualdo Benigni)): Negative
- Gene mutation, Bacterial Reverse Mutation Assay (e.g. Ames Test) ([2]; Salmonella typhimurium, Strain TA 1537, in Vitro, Database: Genotoxicity OASIS, ref P&G): Negative
- Chromosome aberration, in Vitro Mammalian Chromosome Aberration Test ([2]; in Vitro, Chinese hamster, CHO Cells, Database Genotoxicity OASIS, ref ECHA, Registration dossier): Positive
- Chromosome aberration, in Vitro Mammalian Chromosome Aberration Test [2, 7]: Negative
- Chromosome aberration, Micronucleus Assay [2, 8]: Negative
- Chromosome aberration, in Vitro Mammalian Chromosome Aberration Test [2, 8]: Negative
- Gene mutation, Bacterial Reverse Mutation Assay (e.g. Ames Test) [2, 8]: Negative
- Gene mutation, Mammalian Cell Gene Mutation (MLA HPRT) [2, 8]: Inadequate
- Chromosome aberration, in Vitro Mammalian Chromosome Aberration Test [2, 9]: Positive
- Gene mutation, Bacterial Reverse Mutation Assay (e.g. Ames Test) ([2]; in Vitro, Salmonella typhimurium, No Strain Information, Database Genotoxicity OASIS, ref Journal of Medicinal Chemistry 48 (1), pp. 312-32, 25, Kazius J, McGuire R., Bursi R): Negative
- Gene mutation, Bacterial Reverse Mutation Assay (e.g. Ames Test) ([2]; in Vitro, Salmonella typhimurium, Strain TA 97, Database Genotoxicity OASIS, ref P&G): Negative
- Gene mutation, Bacterial Reverse Mutation Assay (e.g. Ames Test) ([2]; in Vitro, Salmonella typhimurium, Strain TA 98, Database Genotoxicity OASIS, ref P&G): Negative
- Gene mutation, Bacterial Reverse Mutation Assay (e.g. Ames Test) ([2]; in Vitro, Salmonella typhimurium, Strain TA 100, Database Genotoxicity OASIS, ref P&G): Negative
- Gene mutation, Bacterial Reverse Mutation Assay (e.g. Ames Test) ([2]; in Vitro, Salmonella typhimurium, Strain TA 102, OECD Guideline 471, Database Genotoxicity OASIS, ref CCRIS database,Toxnet databases): Negative
- Gene mutation, Bacterial Reverse Mutation Assay (e.g. Ames Test) ([2]; in Vitro, Salmonella typhimurium, Strain TA 1535, Database Genotoxicity OASIS, ref P&G): Negative
- Gene mutation, Bacterial Reverse Mutation Assay (e.g. Ames Test) ([2]; in Vitro, Salmonella typhimurium, Strain TA 1537, Database Genotoxicity OASIS, ref P&G): Negative
- Gene mutation, Bacterial Reverse Mutation Assay (e.g. Ames Test) ([2]; in Vitro, Salmonella typhimurium, Strain TA 1538, Database Genotoxicity OASIS, ref P&G): Negative
- Gene mutation, Mammalian Cell Gene Mutation Assay [2, 10]: Positive

SMILES: CCCCCCCCCc1ccc(O)cc1 [4-n-Nonylphenol]
- Induction in CPA ([3]; 30 µM, U2OS, 20 h, percentage of altered features (579) vs DMSO controls): 17 (30 µM) %
- Cell count ([3]; U2OS, 20 h): 91 (50 µM) % of control
- Highest similarity to biological clusters: DNA synthesis [3, 11]: DNA synthesis (70%)
- IC50 ([4]; Mus musculus, C3H 10T1/2, 96 h): 3.8 µM
- EC50 (CHO DG44 cells; Cricetulus griseus, CHO-DG44, 72 h): > 4.5 µM

SMILES: CCCCCCCCCCCCN(CCO)CCO [N-Lauryldiethanolamine]
- Induction in CPA ([3]; 3 µM, U2OS, 20 h, percentage of altered features (579) vs DMSO controls): 61% and 61 (3 µM) %
- U2OS cell count compared to the control ([3]; 30 µM, after 24 h incubation): 50%
- Cell count ([3]; U2OS, 20 h): 11 (50 µM) % of control
- Percentage of changed features, all channels ([3]; Fig. 6, 3 µm): 50 to 90%
- Percentage of changed features, AreaShape group ([3]; Fig. 6, shape of the cells): all features
- Concentration from which strong inhibitory effect on cell growth starts ([3]; U2OS, CPA): ≥ 30 µM
- Highest similarity to biological clusters: Cholesterol homeostasis [3, 11]: 88%
- Lysosomotropic behavior in CPA ([3]; cluster assignment in words, N-Lauryldiethanolamine at 30 µM): some lysosomotropic behavior
- Induction in CPA ([3]; tested concentrations ≤ 50 µM, concentration not given at the place, active threshold 5%): > 5%
- Toxic concentration in the osteogenesis inhibition assay ([4]; C3H10T1/2, excluded from dose-response measurement): ≥ 10 µM
- IC50 ([4]; C3H10T1/2, purmorphamine, 96 h, alkaline phosphatase expression): ≥ 10 µM
- EC50 (CHO DG44 cells; CHO DG44, serum-free chemically defined medium, 72 h, 50% inhibition of cell growth): 2.1 µM

SMILES: Cc1cc(C(C)(C)C)c(O)c(C(C)(C)C)c1 [128-37-0]
- Chromosome aberration, in Vivo Mammalian Chromosome Aberration Test ([1]; Database Genotoxicity & Carcinogenicity ECVAM, ref EURL ECVAM genotoxicity and carcinogencity database, Madia F et al, 2020): Negative
- Chromosome aberration, Micronucleus Assay [1, 5]: Negative
- DNA damage and repair, COMET or Alkaline Elution [1, 5]: Positive
- DNA damage and repair, DNA Adducts [1, 5]: Negative
- Chromosome aberration, Micronucleus Assay ([1]; in Vivo, Database Genotoxicity OASIS, ref Bruce, W. R., & Heddle, J. A. (1979), Can. J. Genet. Cytol. 21, 319-334): Negative
- DNA damage and repair, Single Cell Gel Electrophoresis (comet) Assay [1, 6]: Negative
- Chromosome aberration, in Vitro Mammalian Chromosome Aberration Test ([2]; in Vitro, Chinese hamster, Chinese Hamster Lung (CHL), Duration 6÷18 h, Database Genotoxicity OASIS, ref Sofuni, T., Ed. (1998). Data Book of Chromosomal Aberration Test In Vitro, Revised Edition): Negative
- Chromosome aberration, in Vitro Mammalian Chromosome Aberration Test [2, 7]: Negative
- Chromosome aberration, in Vitro Mammalian Chromosome Aberration Test [2, 8]: Equivocal
- Gene mutation, Mammalian Cell Gene Mutation (MLA HPRT) [2, 8]: Positive
- Chromosome aberration, in Vitro Mammalian Chromosome Aberration Test [2, 9]: Negative
- Gene mutation, Mammalian Cell Gene Mutation Assay [2, 10]: Positive
